Assay results as given in patent US20250034184A1, “QUATERNARY PHOSPHONIUM COMPOUNDS AND USES THEREOF” (Emory University, priority 2021, published 2025).

Experiments:
[1] = tested on: Pseudomonas aeruginosa (PAO1); assay: microbe, parasite or virus in culture; assay type: cell-based
[2] = tested on: red blood cell (RBC)
[3] = tested on: methicillin-susceptible S. aureus (SH1000); assay: microbe, parasite or virus in culture; assay type: cell-based
[4] = tested on: Enterococcus faecalis (OG1RF); assay: microbe, parasite or virus in culture; assay type: cell-based
[5] = tested on: community-acquired methicillin-resistant S. aureus (CA-MRSA; USA 300-0114); assay: microbe, parasite or virus in culture; assay type: cell-based
[6] = tested on: Escherichia coli (MC4100); assay: microbe, parasite or virus in culture; assay type: cell-based
[7] = tested on: hospital-acquired methicillin-resistant S. aureus (HA-MRSA; ATCC 33591); assay: microbe, parasite or virus in culture; assay type: cell-based

Compound | Minimum Inhibitory Concentration Pa [1] [µM] | Lys20 [2] [µM] | Minimum Inhibitory Concentration MSSA [3] [µM] | Minimum Inhibitory Concentration E. faecalis [4] [µM] | Minimum Inhibitory Concentration CA-MRSA [5] [µM] | Minimum Inhibitory Concentration E. coli [6] [µM] | Minimum Inhibitory Concentration HA-MRSA [7] [µM] | fold increase in activity compared to its 12-carbon analog [6] [fold]
CCCCCCCCCC[P+](CC[P+](CCCCCCCCCC)(c1ccccc1)c1ccccc1)(CC[P+](CCCCCCCCCC)(c1ccccc1)c1ccccc1)CC[P+](CCCCCCCCCC)(c1ccccc1)c1ccccc1 [4P-10,10,10,10, ((decylphosphoniotriyl)tris(ethane-2,1-diyl))tris(decyldiphenylphosphonium)] | >250 | 8 | 16 | 250 | 32 | 250 | 32 | 
CCCCCCCCCCC[P+](CC[P+](CCCCCCCCCCC)(c1ccccc1)c1ccccc1)(CC[P+](CCCCCCCCCCC)(c1ccccc1)c1ccccc1)CC[P+](CCCCCCCCCCC)(c1ccccc1)c1ccccc1 [4P-11,11,11,11, ((undecylphosphoniotriyl)tris(ethane-2,1-diyl))tris(diphenyl(undecyl)phosphonium)] | >250 | 4 | 16 | 125 | 32 | 125 | 125 | 
CCCCCCCCCCCC[P+](CC[P+](CCCCCCCCCCCC)(c1ccccc1)c1ccccc1)(CC[P+](CCCCCCCCCCCC)(c1ccccc1)c1ccccc1)CC[P+](CCCCCCCCCCCC)(c1ccccc1)c1ccccc1 [4P-12,12,12,12, ((dodecylphosphoniotriyl)tris(ethane-2,1-diyl))tris(dodecyldiphenylphosphonium)] | >250 | 4 | 16 | 250 | 16 | 250 | 63 | 
CCCCCCCCCCCCCCCC[n+]1ccccc1 [CPC, cetylpyridinium chloride, reference compound] |  | 4 |  |  |  |  |  | 
CCCCCCCC[P+](CC[P+](CCCCCCCC)(c1ccccc1)c1ccccc1)(CC[P+](CCCCCCCC)(c1ccccc1)c1ccccc1)c1ccccc1 [P2P2P-8,8,8, ((octyl(phenyl)phosphoniodiyl)bis(ethane-2,1-diyl))bis(octyldiphenylphosphonium)] | >250 | 16 | 2 | 250 | 1 | 250 | 2 | 
CCCCCCCCCC[P+](CC[P+](CCCCCCCCCC)(c1ccccc1)c1ccccc1)(CC[P+](CCCCCCCCCC)(c1ccccc1)c1ccccc1)c1ccccc1 [P2P2P-10,10,10, ((decyl(phenyl)phosphoniodiyl)bis(ethane-2,1-diyl))bis(decyldiphenylphosphonium)] | >250 | 2 | 2 | 250 | 2 | 32 | 8 | 
CCCCCCCCCCC[P+](CC[P+](CCCCCCCCCCC)(c1ccccc1)c1ccccc1)(CC[P+](CCCCCCCCCCC)(c1ccccc1)c1ccccc1)c1ccccc1 [P2P2P-11,11,11, ((phenyl(undecyl)phosphoniodiyl)bis(ethane-2,1-diyl))bis(diphenyl(undecyl)phosphonium)] | >250 | 1 | 2 | 63 | 4 | 63 | 4 | 
CCCCCCCCCCCC[P+](CC[P+](CCCCCCCCCCCC)(c1ccccc1)c1ccccc1)(CC[P+](CCCCCCCCCCCC)(c1ccccc1)c1ccccc1)c1ccccc1 [P2P2P-12,12,12, ((dodecyl(phenyl)phosphoniodiyl)bis(ethane-2,1-diyl))bis(dodecyldiphenylphosphonium)] | >250 | 1 | 2 | 125 | 4 | 125 | 8 | 
CCCCCCCCCCCCC[P+](CC[P+](CCCCCCCCCCCCC)(c1ccccc1)c1ccccc1)(CC[P+](CCCCCCCCCCCCC)(c1ccccc1)c1ccccc1)c1ccccc1 [P2P2P-13,13,13, ((phenyl(tridecyl)phosphoniodiyl)bis(ethane-2,1-diyl))bis(diphenyl(tridecyl)phosphonium)] | >250 | 2 | 2 | 125 | 4 | 125 | 16 | 
CCCCCCCC[P+](c1ccccc1)(c1ccccc1)c1ccccc1 [TPP-8, octyltriphenylphosphonium] | >250 | 63 | 4 | >250 | 4 | >250 | 125 | 
CCCCCCCCCC[P+](c1ccccc1)(c1ccccc1)c1ccccc1 [TPP-10, decyltriphenylphosphonium] | 250 | 16 | 1 | 250 | 2 | 250 | 8 | 
CCCCCCCCCCC[P+](c1ccccc1)(c1ccccc1)c1ccccc1 [TPP-11, triphenyl(undecyl)phosphonium] | 250 | 16 | 1 | 125 | 1 | 125 | 4 | 
CCCCCCCCCCCC[P+](c1ccccc1)(c1ccccc1)c1ccccc1 [TPP-12, dodecyltriphenylphosphonium] | 63 | 8 | 0.5 | 63 | 1 | 250 | 2 | 
CCCCCCCCCCCCC[P+](c1ccccc1)(c1ccccc1)c1ccccc1 [TPP-13, triphenyl(tridecyl)phosphonium] | 32 | 4 | 1 | 16 | 1 | 4 | 2 | ~63
